# Marks after values point to notes of the source that are not given here.
# Tests used:
# [1] = system: Th-B peptide, T1-SP10IIIB(A); experiment: PBMC 3H-thymidine incorporation response to HIV Th-B peptide in immunized chimpanzees; assay type: in vivo, chimpanzee; details: 7 day tritiated thymidine incorporation assays
# Text: Acpm=experimental cpm—control cpm.
# [2] = system: Th-B peptide, T1-SP10IIIB; experiment: Endpoint ELISA anti-peptide antibody titers in chimpanzees immunized with HIV env synthetic peptides; assay type: in vivo, chimpanzee; details: for immunogenicity in chimpanzees (antibody response): low (0.1 mg/kg) or high (0.5 mg/kg) doses in IFA
# Procedure: Immunizations: For goats, 3 mg of peptide were injected intramuscularly in each gluteal region in complete Freund's adjuvant (CFA) (1st dose), then incomplete Freund's adjuvant (IFA) (subsequent doses). […]
# When neither peptide design induced neutralizing anti-HIVIIIB antibodies, the peptide doses were increased to approximately 0.5 mg/kg (30 mg/animal) and the right-hand side neutralizing sequence of HIVIIIB gp120 V3 loop (the (A) region) (Hart et al, Proc. Natl. Acad. Sci. USA 88:9448; Rusche et al Proc. Natl. Acad. Sci. USA 85:3198)) (Table 8) was added to the Th-B peptide to enhance the ability of this peptide to induce anti-HIVIIIB neutralizing antibodies. After 3 monthly injections with either ˜0.5 mg/kg (30 mg) Th-B or F-Th-B peptide, the animals were rested for 6 months, and then reimmunized with either F-Th-B or Th-B with sequences from HIVIIIB, or with the Th-B peptide containing HIV env gp120 V3 sequences from the HIVMN isolate.
# HIVIIIB = experiment: Anti-HIVIIIB neutralizing antibodies in immunized goats (reverse transcriptase inhibition); assay type: in vivo, HIV; details: 3 mg, CFA then IFA, after the fourth immunization
# Procedure: FIG. 15. […] Goat 102A was immunized with 3 mg of the F-Th-B peptide, F-T1-SP10IIIB(A) and goat 104A was immunized with the HIVIIIB Th-B peptide, T1-SP10IIIB. Immunizations were in CFA (first dose) and IFA (doses 2-4). Neutralizing titers are titers at which reverse transcriptase production was inhibited by 90% or greater.
# Immunizations: For goats, 3 mg of peptide were injected intramuscularly in each gluteal region in complete Freund's adjuvant (CFA) (1st dose), then incomplete Freund's adjuvant (IFA) (subsequent doses). For immunization of chimpanzees, varying doses of peptides were injected IM in IFA in a total volume of 4 cc, with 1 cc injected into right and left upper arms and thighs.
# (§1) HIV Neutralization Assays: The ability of chimpanzee or goat serum antibodies to neutralize HIV was determined in syncytium inhibition assay and reverse transcriptase inhibition assay as previously described (Palker et al, J. Immunol. 142:3612 (1989); Palker et al, Proc. Natl. Acad. Sci. USA 85:1932 (1988)). Sera were heat inactivated (30 min, 56° C.) prior to each assay.
# JY B cells = experiment: Peptide entry into cells, intracytoplasmic fluorescence of acetone-fixed cells; assay type: cell-based, human; details: for % Intracytoplasmic Positive: peptide 10 μg/ml, 21 hours at 37 degrees C
# Procedure: Cells were incubated as descirbed in Table 13. After 21 hours at 37 degrees C., cytocentrifuge preparations of cells were prepared, acetone fixed, and reacted either with control mab P3x63 AgS or with anti-qp120 mab 0.5beta. Slides were read for either faint or bright intracytoplasmic fluoresence on a fluoresence microscope.
# human JY B cells = experiment: Peptide binding to human cells, flow cytometry with anti-gp120 mab 0.5beta; assay type: cell-based; details: mean channel fluoresence, peptide 10 ug/ml
# Procedure: Anti-gp120 momoclonal antibody was 0.5beta from the NIAID AIDS Research and Reference Reagent Program (Matsushita et al J. Virol. 62:2107, 1988). […] The amount of fluoresence was determined on a flow cytometer and fluoresence brightness was expressed as MFC=mean channel fluoresence.
# HIV LAI/IIIB [3] = experiment: Reverse transcriptase inhibition assay with sera of immunized chimpanzees, HIV LAI/IIIB; assay type: in vivo
# Procedure: as §1
# HIV LAI/IIIB [4] = experiment: Syncytium inhibition assay with sera of immunized chimpanzees, HIV LAI/IIIB; assay type: in vivo
# Procedure: as §1
# HIV MN [5] = experiment: Reverse transcriptase inhibition assay with sera of immunized chimpanzees, HIV MN; assay type: in vivo
# Procedure: as §1
# HIV MN [6] = experiment: Syncytium inhibition assay with sera of immunized chimpanzees, HIV MN; assay type: in vivo
# Procedure: as §1
# [7] = chimpanzee 1045 serum, Month 19, prior F-Th-B(IIIB)
# [8] = chimpanzee 1045 serum, Month 20, prior F-Th-B(IIIB)
# [9] = chimpanzee 1070 serum, Month 18, prior F-Th-B(IIIB)
# [10] = chimpanzee 1070 serum, Month 19, prior F-Th-B(IIIB)
# [11] = chimpanzee 1070 serum, Month 20, prior F-Th-B(IIIB)
sequence,measurement,setting,value
"KQIINMWQEVGKAMYACTRPNNNTRKSIRIQRGPG [Peptide T1-SP10IIIB, HIVIIIB Th-B peptide]",PBMC proliferation to T1-SP10IIIB(A) peptide,[1],induced high levels of proliferation
same,immunogenicity in chimpanzees (antibody response),[2],potent immunogens
same,induction of serum anti-HIV neutralizing antibodies,HIVIIIB,induced anti-HIV neutralizing antibodies in goats
"KQIINMWQEVGKAMYACTRPNNNTRKSIRIQRGPGRAFVTI [T1-SP10IIIB(A), HIVIIIB Th-B peptide with (A) region]",PBMC proliferation to T1-SP10IIIB(A) peptide,[1],induced high levels of proliferation
same,immunogenicity in chimpanzees (antibody response),[2],potent immunogens
same,% Intracytoplasmic Positive,JY B cells; Anti-gp120 mab 0.5beta,0%
same,% Intracytoplasmic Positive,JY B cells; Control antibody (mab P3x63 AgS),0%
same,"MFC 4 Degrees C., 1 Hr.","human JY B cells; 4 degrees C, 1 hour",14.7
same,"MFC 37 Degrees C., 22 Hr.","human JY B cells; 37 degrees C, 22 Hr.",14.0
"KQIINMWQEVGKAMYACTRPNYNKRKRIHIGPGRAFYTTK [T1-SP10MN(A), HIVMN Th-B peptide]",Reciprocal Titer in RT Inhibition Assay,HIV LAI/IIIB [3]; [7],23
same,Reciprocal Titer in RT Inhibition Assay,HIV LAI/IIIB [3]; [8],22
same,Reciprocal Titer in RT Inhibition Assay,HIV LAI/IIIB [3]; [9],92
same,Reciprocal Titer in RT Inhibition Assay,HIV LAI/IIIB [3]; [10],100
same,Reciprocal Titer in RT Inhibition Assay,HIV LAI/IIIB [3]; [11],86
same,Presence of Neutralization in Syncytium Inhibition Assay,HIV LAI/IIIB [4]; [7],+/− (≧49% and <80% inhibition of syncytia.)
same,Presence of Neutralization in Syncytium Inhibition Assay,HIV LAI/IIIB [4]; [8],− (<48% inhibition of syncytia.)
same,Presence of Neutralization in Syncytium Inhibition Assay,HIV LAI/IIIB [4]; [9],+/− (≧49% and <80% inhibition of syncytia.)
same,Presence of Neutralization in Syncytium Inhibition Assay,HIV LAI/IIIB [4]; [10],"+ (≧80% inhibition of syncytia, titer 1:10.)"
same,Presence of Neutralization in Syncytium Inhibition Assay,HIV LAI/IIIB [4]; [11],+/− (≧49% and <80% inhibition of syncytia.)
same,Reciprocal Titer in RT Inhibition Assay,"HIV MN [5]; chimpanzee 884 serum, Month 18, prior Th-B(IIIB)",20
same,Reciprocal Titer in RT Inhibition Assay,"HIV MN [5]; chimpanzee 884 serum, Month 20, prior Th-B(IIIB)",24
same,Reciprocal Titer in RT Inhibition Assay,"HIV MN [5]; chimpanzee 1045 serum, Month 18, prior F-Th-B(IIIB), Th-B(IIIB)",23
same,Reciprocal Titer in RT Inhibition Assay,"HIV MN [5]; chimpanzee 1045 serum, Month 19, prior F-Th-B(IIIB), Th-B(IIIB)",23
same,Reciprocal Titer in RT Inhibition Assay,"HIV MN [5]; chimpanzee 1045 serum, Month 20, prior F-Th-B(IIIB), Th-B(IIIB)",24
same,Reciprocal Titer in RT Inhibition Assay,"HIV MN [5]; chimpanzee 1070 serum, Month 18, prior F-Th-B(IIIB), Th-B(IIIB)",22
same,Reciprocal Titer in RT Inhibition Assay,"HIV MN [5]; chimpanzee 1070 serum, Month 19, prior F-Th-B(IIIB), Th-B(IIIB)",96
same,Reciprocal Titer in RT Inhibition Assay,"HIV MN [5]; chimpanzee 1070 serum, Month 20, prior F-Th-B(IIIB), Th-B(IIIB)",350
same,Reciprocal of ELISA Titer,"[2]; chimpanzee 884, month 17, after Th-B(IIIB) months 2-14","12,800"
same,Reciprocal of ELISA Titer,"[2]; chimpanzee 884, month 18, after Th-B(IIIB) months 2-14","25,600"
same,Reciprocal of ELISA Titer,"[2]; chimpanzee 884, month 19, after Th-B(IIIB) months 2-14","25,600"
same,Reciprocal of ELISA Titer,"[2]; chimpanzee 884, month 20, after Th-B(IIIB) months 2-14","51,200"
same,Reciprocal of ELISA Titer,"[2]; chimpanzee 1028, month 17, after Th-B(IIIB) months 2-14, injections in PBS alone","3,200"
same,Reciprocal of ELISA Titer,"[2]; chimpanzee 1028, month 18, after Th-B(IIIB) months 2-14, injections in PBS alone","6,400"
same,Reciprocal of ELISA Titer,"[2]; chimpanzee 1028, month 19, after Th-B(IIIB) months 2-14, injections in PBS alone","1,600"
same,Reciprocal of ELISA Titer,"[2]; chimpanzee 1028, month 20, after Th-B(IIIB) months 2-14, injections in PBS alone","6,400"
same,Reciprocal of ELISA Titer,"[2]; chimpanzee 1045, month 17, after F-Th-B(IIIB) months 2-14 and Th-B(IIIB) month 16","1,600"
same,Reciprocal of ELISA Titer,"[2]; chimpanzee 1045, month 18, after F-Th-B(IIIB) months 2-14 and Th-B(IIIB) month 16","6,400"
same,Reciprocal of ELISA Titer,"[2]; chimpanzee 1045, month 19, after F-Th-B(IIIB) months 2-14 and Th-B(IIIB) month 16","6,400"
same,Reciprocal of ELISA Titer,"[2]; chimpanzee 1045, month 20, after F-Th-B(IIIB) months 2-14 and Th-B(IIIB) month 16","51,200"
same,Reciprocal of ELISA Titer,"[2]; chimpanzee 1070, month 17, after F-Th-B(IIIB) months 2-14 and Th-B(IIIB) month 16","3,200"
same,Reciprocal of ELISA Titer,"[2]; chimpanzee 1070, month 18, after F-Th-B(IIIB) months 2-14 and Th-B(IIIB) month 16","25,600"
same,Reciprocal of ELISA Titer,"[2]; chimpanzee 1070, month 19, after F-Th-B(IIIB) months 2-14 and Th-B(IIIB) month 16","51,200"
same,Reciprocal of ELISA Titer,"[2]; chimpanzee 1070, month 20 (month 20 immunization not given), after F-Th-B(IIIB) months 2-14 and Th-B(IIIB) month 16","102,400#"
same,Presence of Neutralization in Syncytium Inhibition Assay,"HIV MN [6]; chimpanzee 1045 serum, Month 18, prior F-Th-B(IIIB)",− (<48% inhibition of syncytia.)
same,Presence of Neutralization in Syncytium Inhibition Assay,HIV MN [6]; [7],− (<48% inhibition of syncytia.)
same,Presence of Neutralization in Syncytium Inhibition Assay,HIV MN [6]; [8],− (<48% inhibition of syncytia.)
same,Presence of Neutralization in Syncytium Inhibition Assay,HIV MN [6]; [9],− (<48% inhibition of syncytia.)
same,Presence of Neutralization in Syncytium Inhibition Assay,HIV MN [6]; [10],"+ (≧80% inhibition of syncytia, titer 1:10.)"
same,Presence of Neutralization in Syncytium Inhibition Assay,HIV MN [6]; [11],"++ (≧80% inhibition of syncytia, titer 1:20.)"
same,detection of peptide inside the JY B cells,JY B cells; 10 ug/ml of peptide for 21 hours at 37 degrees C,could not be detected
